From patent US6150385A, “1,3,4-thiadiazoles useful for the treatment of CMV infections” (Pharmacia & Upjohn Company, priority 1999, dated 2000)

What follows are molecules tested against T1, HCMV polymerase (Human cytomegalovirus, UniProt P08546) (assay: HCMV polymerase assay (scintillation proximity assay)). Conditions: percentage of inhibition at 25 μM concentration in CMV polymerase assay.
T1 construct: made in house; host or cells: SF-9 insect cells infected with recombinant baculovirus
Type: biochemical
Method in brief: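 Values are percent inhibition at 25 μM, measured by scintillation proximity after capture of biotinylated poly(dA)-oligo(dT) (6 nM) extended with 90 nM 3H-dTTP. Recombinant SF-9-derived enzyme reacted 30 min at 25 or 37 °C in HEPES pH 7.5/KCl/MgCl2/BSA buffer, ±2 mM CHAPS, before EDTA termination.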

T1 sequence (P08546 whole entry): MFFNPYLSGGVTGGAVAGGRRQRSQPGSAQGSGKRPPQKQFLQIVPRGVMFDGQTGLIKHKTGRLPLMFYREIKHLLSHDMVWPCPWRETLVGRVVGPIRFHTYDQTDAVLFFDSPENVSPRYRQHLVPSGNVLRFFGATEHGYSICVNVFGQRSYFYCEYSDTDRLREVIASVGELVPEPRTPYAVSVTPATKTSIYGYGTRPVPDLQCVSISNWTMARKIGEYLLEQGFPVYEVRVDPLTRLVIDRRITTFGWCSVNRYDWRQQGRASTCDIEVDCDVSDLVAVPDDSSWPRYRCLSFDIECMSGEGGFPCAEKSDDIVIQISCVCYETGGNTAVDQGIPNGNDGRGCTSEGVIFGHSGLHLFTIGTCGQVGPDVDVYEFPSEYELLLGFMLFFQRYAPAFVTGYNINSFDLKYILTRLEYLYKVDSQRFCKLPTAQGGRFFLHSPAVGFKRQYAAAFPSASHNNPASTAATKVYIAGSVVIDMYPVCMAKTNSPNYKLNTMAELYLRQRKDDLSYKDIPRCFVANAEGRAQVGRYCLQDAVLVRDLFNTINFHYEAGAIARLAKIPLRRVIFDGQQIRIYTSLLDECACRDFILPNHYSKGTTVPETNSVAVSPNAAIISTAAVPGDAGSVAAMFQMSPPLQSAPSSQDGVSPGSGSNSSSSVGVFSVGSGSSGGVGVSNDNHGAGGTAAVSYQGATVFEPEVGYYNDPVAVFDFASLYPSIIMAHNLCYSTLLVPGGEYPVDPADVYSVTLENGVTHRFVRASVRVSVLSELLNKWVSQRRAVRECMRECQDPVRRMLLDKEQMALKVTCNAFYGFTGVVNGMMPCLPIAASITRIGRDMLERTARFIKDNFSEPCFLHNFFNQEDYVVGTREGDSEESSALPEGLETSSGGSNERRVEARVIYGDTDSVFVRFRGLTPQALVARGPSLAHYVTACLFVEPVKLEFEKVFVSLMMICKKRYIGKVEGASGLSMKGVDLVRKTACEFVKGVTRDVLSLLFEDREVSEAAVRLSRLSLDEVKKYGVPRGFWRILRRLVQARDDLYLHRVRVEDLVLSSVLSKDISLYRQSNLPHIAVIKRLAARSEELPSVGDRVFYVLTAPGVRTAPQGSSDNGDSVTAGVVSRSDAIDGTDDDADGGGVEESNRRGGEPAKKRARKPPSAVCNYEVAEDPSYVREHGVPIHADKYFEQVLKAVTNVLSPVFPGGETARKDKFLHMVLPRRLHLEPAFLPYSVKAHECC

Compound	inhibition at 25 µM	% Inhib
O=C(/C=C/c1ccccc1)Nc1nnc(NCC2CCCCC2)s1 [compound 360, (E)-N-{5-[(cyclohexylmethyl)amino]-1,3,4-thiadiazol-2-yl}-3-phenyl-2-propenamide]	29%	–
O=C(Nc1nnc(NCc2ccc(F)cc2)s1)c1cc2ccccc2s1 [compound 361, N-{5-[(4-fluorobenzyl)amino]-1,3,4-thiadiazol-2-yl}-1-benzothiophene-2-carboxamide]	28.8%	–
O=C(Nc1nnc(NCc2cccc3ccccc23)s1)c1cc(F)cc(F)c1 [compound 362, 3,5-difluoro-N-{5-[(1-naphthylmethyl)amino]-1,3,4-thiadiazol-2-yl}benzamide]	28.8%	–
O=C(Nc1nnc(NCc2cccc3ccccc23)s1)c1ccc(F)cc1F [compound 363, 2,4-difluoro-N-{5-[(1-naphthylmethyl)amino]-1,3,4-thiadiazol-2-yl}benzamide]	28.8%	–
N#Cc1ccc(C(=O)Nc2nnc(NCC3CCCCC3)s2)cc1 [compound 364, 4-cyano-N-{5-[(cyclohexylmethyl)amino]-1,3,4-thiadiazol-2-yl}benzamide]	28.7%	–
N#Cc1ccc(C(=O)Nc2nnc(NCc3cccs3)s2)cc1 [compound 365, 4-cyano-N-{5-[(2-thienylmethyl)amino]-1,3,4-thiadiazol-2-yl}benzamide]	28.7%	–
COc1ccccc1C(=O)Nc1nnc(NCCc2ccc(S(N)(=O)=O)cc2)s1 [compound 366, N-(5-{[4-(aminosulfonyl)phenethyl]amino}-1,3,4-thiadiazol-2-yl)-2-methoxybenzamide]	28.6%	–
O=C(Nc1nnc(NC2CCN(Cc3ccccc3)CC2)s1)c1ccc(I)cc1 [compound 367, N-{5-[(1-benzyl-4-piperidinyl)amino]-1,3,4-thiadiazol-2-yl}-4-iodobenzamide]	28.6%	–
CCOC(=O)N1CCC(Nc2nnc(NC(=O)c3cc4ccccc4s3)s2)CC1 [compound 368, ethyl 4-({5-[(1-benzothiophen-2-ylcarbonyl)amino]-1,3,4-thiadiazol-2-yl}amino)tetrahydro-1(2H)-pyridinecarboxylate]	28.5%	–
O=C(Nc1nnc(NC2CCCCCC2)s1)c1c(Cl)cccc1Cl [compound 369, 2,6-dichloro-N-[5-(cycloheptylamino)-1,3,4-thiadiazol-2-yl]benzamide]	28.3%	–
O=C(Nc1nnc(NCCN2CCCC2)s1)c1c(Cl)cccc1Cl [compound 370, 2,6-dichloro-N-(5-{[2-(1-pyrrolidinyl)ethyl]amino}-1,3,4-thiadiazol-2-yl)benzamide]	28.3%	–
O=C(Nc1nnc(NCCCN2CCCC2=O)s1)c1ccc(S(=O)(=O)F)cc1 [compound 371, 4-{[(5-{[3-(2-oxo-1-pyrrolidinyl)propyl]amino}-1,3,4-thiadiazol-2-yl)amino]carbonyl}benzenesulfonyl fluoride]	–	28.1%
O=C(Nc1nnc(NCc2ccc3c(c2)OCO3)s1)c1cc(F)cc(F)c1 [compound 372, N-{5-[(1,3-benzodioxol-5-ylmethyl)amino]-1,3,4-thiadiazol-2-yl}-3,5-difluorobenzamide]	28.1%	–
O=C(Nc1nnc(NCCCCc2ccccc2)s1)c1cc(F)cc(F)c1 [compound 373, 3,5-difluoro-N-{5-[(4-phenylbutyl)amino]-1,3,4-thiadiazol-2-yl}benzamide]	28.1%	–
O=C(/C=C/c1ccccc1Cl)Nc1nnc(NC2CCCc3ccccc32)s1 (stereo not drawn) [compound 374, (E)-3-(2-chlorophenyl)-N-[5-(1,2,3,4-tetrahydro-1-naphthalenylamino)-1,3,4-thiadiazol-2-yl]-2-propenamide]	28.1%	–
CCCCCCCCCCCNc1nnc(NC(=O)c2ccc(Cl)c(Cl)c2)s1 [compound 375, 3,4-dichloro-N-[5-(undecylamino)-1,3,4-thiadiazol-2-yl]benzamide]	27.9%	–
O=C(Nc1nnc(NCCC(c2ccccc2)c2ccccc2)s1)c1ccc(C(F)(F)F)cc1 [compound 376, N-{5-[(3,3-diphenylpropyl)amino]-1,3,4-thiadiazol-2-yl}-4-(trifluoromethyl)benzamide]	27.9%	–
O=C(Nc1nnc(NCCc2ccccc2)s1)c1c(Cl)cccc1Cl [compound 377, 2,6-dichloro-N-[5-(phenethylamino)-1,3,4-thiadiazol-2-yl]benzamide]	27.8%	–
CCCCCCCC/C=C/CCCCCCCC(=O)Nc1nnc(NCCCn2ccnc2)s1 [compound 378, (E)-N-(5-{[3-(1H-imidazol-1-yl)propyl]amino}-1,3,4-thiadiazol-2-yl)-9-octadecenamide]	27.8%	–
O=C(/C=C/c1ccccc1)Nc1nnc(NCCNc2ccccc2)s1 [compound 379, (E)-N-{5-[(2-anilinoethyl)amino]-1,3,4-thiadiazol-2-yl}-3-phenyl-2-propenamide]	27.5%	–
O=C(Nc1nnc(NCC2CCCCC2)s1)c1ccc([N+](=O)[O-])o1 [compound 380, N-{5-[(cyclohexylmethyl)amino]-1,3,4-thiadiazol-2-yl}-5-nitro-2-furamide]	27.5%	–
CC(C)c1cc(C(C)C)c(C(=O)Nc2nnc(NCCCN3CCCC3=O)s2)c(C(C)C)c1 [compound 381, 2,4,6-triisopropyl-N-(5-{[3-(2-oxo-1-pyrrolidinyl)propyl]amino}-1,3,4-thiadiazol-2-yl)benzamide]	27.4%	–
O=C(CCCCCl)Nc1nnc(NCCCCc2ccccc2)s1 [compound 382, 5-chloro-N-{5-[(4-phenylbutyl)amino]-1,3,4-thiadiazol-2-yl}pentanamide]	27.3%	–
COc1ccccc1C(=O)Nc1nnc(NCCC(c2ccccc2)c2ccccc2)s1 [compound 383, N-{5-[(3,3-diphenylpropyl)amino]-1,3,4-thiadiazol-2-yl}-2-methoxybenzamide]	27.3%	–
O=C(Nc1nnc(NCC2CCCCC2)s1)c1ccc(Cl)c(Cl)c1 [compound 384, 3,4-dichloro-N-{5-[(cyclohexylmethyl)amino]-1,3,4-thiadiazol-2-yl}benzamide]	27.2%	–
O=C(Nc1nnc(NCC(c2ccccc2)c2ccccc2)s1)c1ccc(Br)cc1 [compound 385, 4-bromo-N-{5-[(2,2-diphenylethyl)amino]-1,3,4-thiadiazol-2-yl}benzamide]	27.2%	–
O=C(Nc1nnc(NCCC(c2ccccc2)c2ccccc2)s1)c1ccc(Br)cc1 [compound 386, 4-bromo-N-{5-[(3,3-diphenylpropyl)amino]-1,3,4-thiadiazol-2-yl}benzamide]	26.9%	–
COc1ccccc1C(=O)Nc1nnc(NCCCNC2CCCCC2)s1 [compound 387, N-(5-{[3-(cyclohexylamino)propyl]amino}-1,3,4-thiadiazol-2-yl)-2-methoxybenzamide]	26.8%	–
CC(C)c1cc(C(C)C)c(C(=O)Nc2nnc(NCCC(=O)OC(C)(C)C)s2)c(C(C)C)c1 [compound 388, tert-butyl 3-({5-[(2,4,6-triisopropylbenzoyl)amino]-1,3,4-thiadiazol-2-yl}amino)propanoate]	26.6%	–
CC1(C)C2CC[C@@H](CNc3nnc(NC(=O)c4cc(F)cc(F)c4)s3)C1C2 (stereo partly drawn) [compound 389, N-[5-({[(2R)-6,6-dimethylbicyclo[3.1.1]hept-2-yl]methyl}amino)-1,3,4-thiadiazol-2-yl]-3,5-difluorobenzamide]	26.5%	–
